Read-outs that look alike come from different tables or passages of the source.

Assay [1] has as its system induction of TAT by dexamethasone in HepG2 cells. Kind of assay: HepG2 tyrosine aminotransferase (TAT) assay. The assay is classed as cell-based, human.
For another assay, the target named is T1, human recombinant GR (Homo sapiens, UniProt P04150).
T1 construct: purchased PanVera P2812
T1 sequence (P04150 1-777): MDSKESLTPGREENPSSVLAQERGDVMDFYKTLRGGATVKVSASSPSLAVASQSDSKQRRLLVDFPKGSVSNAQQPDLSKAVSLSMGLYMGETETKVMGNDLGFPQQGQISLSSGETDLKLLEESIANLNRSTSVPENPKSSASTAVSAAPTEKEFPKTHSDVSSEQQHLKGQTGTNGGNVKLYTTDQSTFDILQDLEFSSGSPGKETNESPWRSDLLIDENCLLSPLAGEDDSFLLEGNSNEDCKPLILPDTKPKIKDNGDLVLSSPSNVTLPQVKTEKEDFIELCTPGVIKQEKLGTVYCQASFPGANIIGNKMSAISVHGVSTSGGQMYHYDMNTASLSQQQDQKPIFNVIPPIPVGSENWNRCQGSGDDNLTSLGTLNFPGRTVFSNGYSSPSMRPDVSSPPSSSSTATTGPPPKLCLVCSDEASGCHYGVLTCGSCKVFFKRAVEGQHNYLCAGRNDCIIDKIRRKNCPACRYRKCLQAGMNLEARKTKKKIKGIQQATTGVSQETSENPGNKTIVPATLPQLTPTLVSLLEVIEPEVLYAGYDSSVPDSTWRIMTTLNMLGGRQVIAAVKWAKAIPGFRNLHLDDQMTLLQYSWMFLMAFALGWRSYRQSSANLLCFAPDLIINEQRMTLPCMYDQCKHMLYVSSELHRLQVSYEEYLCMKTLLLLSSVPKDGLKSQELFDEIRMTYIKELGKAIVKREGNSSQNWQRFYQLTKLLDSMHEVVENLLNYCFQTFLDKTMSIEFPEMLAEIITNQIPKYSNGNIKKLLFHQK
Kind of assay: Human glucocorticoid receptor (GR) fluorescence polarisation (FP) binding assay. The method, boiled down: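 Competition fluorescence polarisation: 0.5 nM GS Red labelled glucocorticoid and 1 nM recombinant human GR with 8-point half-log compound series, 1% DMSO, 4 h room temperature, potassium phosphate pH 7.4 buffer with molybdate, EDTA, DTT. Affinity derived from the drop in polarisation, normalised to blank wells.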

Setting [2] is: HepG2 cells, challenge of 100 nM dexamethasone, Ki from IC50 by Cheng and Prusoff equation.
The mark [3] stands for this setting: human recombinant GR, fluorescence polarisation binding assay, read-out: GR binding.

With `Cc1ccc(S(=O)(=O)N2CCC3=Cc4c(cnn4-c4ccc(F)cc4)C[C@]3(C(=O)c3ccccn3)C2)cc1` [Example 2O, (R)-(1-(4-fluorophenyl)-6-tosyl-4,4a,5,6,7,8-hexahydro-1H-pyrazolo [3,4-g]isoquinolin-4a-yl)(pyridin-2-yl)methanone], the Ki was under 20 nM in assay [1] (setting [2]) and under 0.5 nM at human recombinant GR.

Take `CCn1nccc1S(=O)(=O)N1CCC2=Cc3c(cnn3-c3ccc(F)cc3)C[C@]2(C(=O)c2cc(C(F)(F)F)ccn2)C1` [Example 2U, (R)-(6-((1-ethyl-1H-pyrazol-5-yl)sulfonyl)-1-(4-fluorophenyl)-4,4a,5,6,7,8-hexahydro-1H-pyrazolo[3,4-g]isoquinolin-4a-yl)(4-(trifluoromethyl)pyridin-2-yl)methanone]: the Ki was under 20 nM in assay [1] (setting [2]) and over 1 nM on human recombinant GR (setting [3]).

As for `Cc1cccc(S(=O)(=O)N2CCC3=Cc4c(cnn4-c4ccc(F)cc4)C[C@]3(C(=O)c3ccccn3)C2)c1` [Example 2E, (R)-(1-(4-fluorophenyl)-6-(m-tolylsulfonyl)-4,4a,5,6,7,8-hexahydro-1H-pyrazolo[3,4-g]isoquinolin-4a-yl)(pyridin-2-yl)methanone], the results for the Ki (in assay [1]; at human recombinant GR) were under 20 nM and under 0.5 nM, respectively.

Consider `O=C(c1nccs1)[C@]12Cc3cnn(-c4ccc(F)cc4)c3C=C1CCN(S(=O)(=O)c1ccc(N3CCCC3)nc1)C2` [Example 4, (R)-(1-(4-fluorophenyl)-6-((6-(pyrrolidin-1-yl)pyridin-3-yl)sulfonyl)-4,4a,5,6,7,8-hexahydro-1H-pyrazolo[3,4-g]isoquinolin-4a-yl)(thiazol-2-yl)methanone], for which the Ki in assay [1] (setting [2]) was at least 100 nM; on human recombinant GR (setting [3]), under 0.5 nM.

Take `CCc1ccnc(C(=O)[C@]23Cc4cnn(-c5ccc(F)cc5)c4C=C2CCN(S(=O)(=O)c2cccc(C#N)c2)C3)c1` [Example 11AU, (R)-3-((4a-(4-ethylpicolinoyl)-1-(4-fluorophenyl)-4a,5,7,8-tetrahydro-1H-pyrazolo [3,4-g]isoquinolin-6 (4H)-yl)sulfonyl)benzonitrile]: the figures for the Ki (in assay [1] (setting [2]); on human recombinant GR (setting [3])) were under 20 nM and under 0.5 nM, respectively.

On to `Cc1ccnc(C(=O)[C@]23Cc4cnn(-c5ccc(F)cc5)c4C=C2CCN(S(=O)(=O)c2cc(C)nn2C)C3)c1` [Example 11BA, (R)-(6-((1,3-dimethyl-1H-pyrazol-5-yl)sulfonyl)-1-(4-fluorophenyl)-4,4a,5,6,7,8-hexahydro-1H-pyrazolo[3,4-g]isoquinolin-4a-yl)(4-methylpyridin-2-yl)methanone], for which the figures for the Ki (in assay [1] (setting [2]); at human recombinant GR (setting [3])) were under 20 nM and under 0.5 nM, respectively.

As to `Cc1cnc(C(=O)[C@]23Cc4cnn(-c5ccc(F)cc5)c4C=C2CCN(S(=O)(=O)c2cnn(C)c2)C3)s1` [Example 12T, (R)-(1-(4-fluorophenyl)-6-((1-methyl-1H-pyrazol-4-yl)sulfonyl)-4,4a,5,6,7,8-hexahydro-1H-pyrazolo[3,4-g]isoquinolin-4a-yl)(5-methylthiazol-2-yl)methanone], the Ki was under 20 nM in assay [1] (setting [2]) and under 0.5 nM on human recombinant GR (setting [3]).

As to `Cc1cnc(C(=O)[C@]23Cc4cnn(-c5ccc(F)cc5)c4C=C2CCN(S(=O)(=O)c2ccnn2C)C3)s1` [Example 12V, (R)-(1-(4-fluorophenyl)-6-((1-methyl-1H-pyrazol-5-yl)sulfonyl)-4,4a,5,6,7,8-hexahydro-1H-pyrazolo[3,4-g]isoquinolin-4a-yl)(5-methylthiazol-2-yl)methanone], the Ki in assay [1] (setting [2]) lay in the range of 20 to 100 nM; at human recombinant GR (setting [3]), 0.5 to 1 nM.

For `COc1ccc(S(=O)(=O)N2CCC3=Cc4c(cnn4-c4ccc(F)cc4)C[C@]3(C(=O)c3ccccn3)C2)cn1` [Example 2R, (R)-(1-(4-fluorophenyl)-6-((6-methoxypyridin-3-yl)sulfonyl)-4,4a,5,6,7,8-hexahydro-1H-pyrazolo[3,4-g]isoquinolin-4a-yl)(pyridin-2-yl)methanone], the results for the Ki (in assay [1] (setting [2]); at human recombinant GR (setting [3])) were under 20 nM and under 0.5 nM, respectively.

On to `COc1ccc(S(=O)(=O)N2CCC3=Cc4c(cnn4-c4ccc(F)cc4)C[C@]3(C(=O)c3ccccn3)C2)cc1Cl` [Example 11C, (R)-(6-((3-chloro-4-methoxyphenyl)sulfonyl)-1-(4-fluorophenyl)-4,4a,5,6,7,8-hexahydro-1H-pyrazolo[3,4-g]isoquinolin-4a-yl)(pyridin-2-yl)methanone], for which the Ki in assay [1] (setting [2]) was 20 to 100 nM; on human recombinant GR (setting [3]), under 0.5 nM.

Turning to `O=C(c1ccccn1)[C@]12Cc3cnn(-c4ccc(F)cc4)c3C=C1CCN(S(=O)(=O)c1cn[nH]c1)C2` [Example 11BS, (R)-(6-((1H-pyrazol-4-yl)sulfonyl)-1-(4-fluorophenyl)-4,4a,5,6,7,8-hexahydro-1H-pyrazolo[3,4-g]isoquinolin-4a-yl)(pyridin-2-yl)methanone], the results for the Ki (in assay [1] (setting [2]); at human recombinant GR (setting [3])) were 20 to 100 nM and 0.5 to 1 nM, respectively.

Regarding `CCn1nncc1S(=O)(=O)N1CCC2=Cc3c(cnn3-c3ccc(F)cc3)C[C@]2(C(=O)c2cc(C(F)(F)F)ccn2)C1` [Example 11CL, (R)-(6-((1-ethyl-1H-1,2,3-triazol-5-yl)sulfonyl)-1-(4-fluorophenyl)-4,4a,5,6,7,8-hexahydro-1H-pyrazolo[3,4-g]isoquinolin-4a-yl)(4-(trifluoromethyl)pyridin-2-yl)methanone], the Ki in assay [1] (setting [2]) was 20 to 100 nM; at human recombinant GR (setting [3]), over 1 nM.

Regarding `O=C(c1ccccn1)[C@]12Cc3cnn(-c4ccc(F)cc4)c3C=C1CCN(S(=O)(=O)c1ccc(Cl)c(F)c1)C2` [Example 2H, (R)-(6-((4-chloro-3-fluorophenyl)sulfonyl)-1-(4-fluorophenyl)-4,4a,5,6,7,8-hexahydro-1H-pyrazolo[3,4-g]isoquinolin-4a-yl)(pyridin-2-yl)methanone], the Ki in assay [1] (setting [2]) is under 20 nM; on human recombinant GR (setting [3]), under 0.5 nM.

For `O=C(c1nccs1)[C@]12Cc3cnn(-c4ccc(F)cc4)c3C=C1CCN(S(=O)(=O)c1ccc(N3CC[C@@H](F)C3)nc1)C2` [Example 9, ((R)-1-(4-fluorophenyl)-6-((6-((R)-3-fluoropyrrolidin-1-yl)pyridin-3-yl)sulfonyl)-4,4a,5,6,7,8-hexahydro-1H-pyrazolo[3,4-g]isoquinolin-4a-yl)(thiazol-2-yl)methanone], the Ki is at least 100 nM in assay [1] (setting [2]) and under 0.5 nM at human recombinant GR (setting [3]).

For `O=C(c1nccs1)[C@]12Cc3cnn(-c4ccc(F)cc4)c3C=C1CCN(S(=O)(=O)Cc1cccc(F)c1)C2` [Example 2A, (R)-(6-((3-fluorobenzyl)sulfonyl)-1-(4-fluorophenyl)-4,4a,5,6,7,8-hexahydro-1H-pyrazolo[3,4-g]isoquinolin-4a-yl)(thiazol-2-yl) methanone], the Ki was at least 100 nM in assay [1] (setting [2]) and under 0.5 nM on human recombinant GR (setting [3]).

For the molecule `O=C(c1ccccn1)[C@]12Cc3cnn(-c4ccc(F)cc4)c3C=C1CCN(S(=O)(=O)c1ccc(Cl)cc1)C2` [Example 11A, (R)-(6-((4-chlorophenyl)sulfonyl)-1-(4-fluorophenyl)-4,4a,5,6,7,8-hexahydro-1H-pyrazolo[3,4-g]isoquinolin-4a-yl)(pyridin-2-yl)methanone], the Ki in assay [1] (setting [2]) is under 20 nM; on human recombinant GR (setting [3]), under 0.5 nM.

As for `Cn1ncnc1C(=O)[C@]12Cc3cnn(-c4ccc(F)cc4)c3C=C1CCN(S(=O)(=O)c1ccc(C(F)(F)F)cc1)C2` [Example 5D, (R)-(1-(4-fluorophenyl)-6-((4-(trifluoromethyl)phenyl)sulfonyl)-4,4a,5,6,7,8-hexahydro-1H-pyrazolo[3,4-g]isoquinolin-4a-yl)(1-methyl-1H-1,2,4-triazol-5-yl)methanone], the Ki was at least 100 nM in assay [1] (setting [2]) and under 0.5 nM at human recombinant GR (setting [3]).

Take `Cn1cc(S(=O)(=O)N2CCC3=Cc4c(cnn4-c4ccc(F)cc4)C[C@]3(C(=O)c3cscn3)C2)cn1` [Example 11CY, (R)-(1-(4-fluorophenyl)-6-((1-methyl-1H-pyrazol-4-yl)sulfonyl)-4,4a,5,6,7,8-hexahydro-1H-pyrazolo[3,4-g]isoquinolin-4a-yl)(thiazol-4-yl)methanone]: the Ki lay in the range of 20 to 100 nM in assay [1] (setting [2]) and 0.5 to 1 nM at human recombinant GR (setting [3]).

In the case of `CCc1ccnc(C(=O)[C@]23Cc4cnn(-c5ccc(F)cc5)c4C=C2CCN(S(=O)(=O)c2cccc(C(F)(F)F)n2)C3)c1` [Example 11AV, (R)-(4-ethylpyridin-2-yl) (1-(4-fluorophenyl)-6-((6-(trifluoromethyl)pyridin-2-yl)sulfonyl)-4,4a,5,6,7,8-hexahydro-1H-pyrazolo [3,4-g]isoquinolin-4a-yl)methanone], the Ki in assay [1] (setting [2]) was under 20 nM; on human recombinant GR (setting [3]), under 0.5 nM.

Consider `CCn1cc(S(=O)(=O)N2CCC3=Cc4c(cnn4-c4ccc(F)cc4)C[C@]3(C(=O)c3cc(C)ccn3)C2)cn1` [Example 11AH, (R)-(6-((1-ethyl-1H-pyrazol-4-yl)sulfonyl)-1-(4-fluorophenyl)-4,4a,5,6,7,8-hexahydro-1H-pyrazolo[3,4-g]isoquinolin-4a-yl)(4-methylpyridin-2-yl)methanone], for which the Ki was under 20 nM in assay [1] (setting [2]) and under 0.5 nM at human recombinant GR (setting [3]).

Source of the values: patent US12226412B2, “Heteroaryl-ketone fused azadecalin glucocorticoid receptor modulators” (Corcept Therapeutics, Inc., priority 2012, dated 2025).
